Converted amounts (≈) assume the structure as drawn. Where two headings read alike, the source gives them in different places.
Experiments:
M. abscessus = assay: MIC by broth dilution method (Middlebrook 7H9); assay type: cell-based, Mycobacteroides abscessus; details: for MIC50 / MIC90: clinical M. abscessus strains of Table 1; for MIC50: read-out: MIC50; for MIC90: read-out: MIC90
[1] = cited from earlier work
M. abscessus ATCC 19977 = assay type: cell-based, Mycobacteroides abscessus; details: drug alone at its individual MIC (T405 2 µg/mL, imipenem 8 µg/mL)
in vivo = assay: in vivo; design: species or system BALB/c mice; details: female, BALB/c, mouse, 25 mg/kg, T405 concentration in blood
Protocol: All procedures involving mice were approved by the Animal Care and Use Committee of Johns Hopkins University. […] Blood was sampled from three mice per group per time point by mandibular vein puncture or cardiac puncture at the following time points: 5, 15, 30, 60, 120, and 240 min post-dose. Plasma was separated in heparin-containing tubes and frozen. […] Concentration–time data were analyzed by standard non-compartmental and compartmental techniques using WinNonlin (version 7.0; Pharsight, Mountain View, CA). A one-compartmental model was used to perform simulations to predict the plasma concentration–time profile after subcutaneous doses of 150, 300, and 450 mg/kg, alone and in combination with probenecid. A plasma free drug fraction of 2% of the total drug concentration was included in the simulations.

[2] = Mycobacteroides abscessus, ATCC19977, reference strain ATCC 19977, read-out: MIC
[3] = Mycobacteroides abscessus, clinical isolate 1N, read-out: MIC
[4] = Mycobacteroides abscessus, clinical isolate 2N, read-out: MIC
[5] = Mycobacteroides abscessus, clinical isolate 3N, read-out: MIC
[6] = Mycobacteroides abscessus, clinical isolate 4N, read-out: MIC
[7] = Mycobacteroides abscessus, clinical isolate 5N, read-out: MIC
[8] = Mycobacteroides abscessus, clinical isolate 8N, read-out: MIC
[9] = Mycobacteroides abscessus, clinical isolate 11N, read-out: MIC
[10] = Mycobacteroides abscessus, clinical isolate 13N, read-out: MIC
[11] = Mycobacteroides abscessus, clinical isolate 14N, read-out: MIC
[12] = Mycobacteroides abscessus, clinical isolate 202, read-out: MIC
[13] = Mycobacteroides abscessus, clinical isolate 203, read-out: MIC
[14] = Mycobacteroides abscessus, clinical isolate 204, read-out: MIC
[15] = Mycobacteroides abscessus, clinical isolate 214, read-out: MIC
[16] = Mycobacteroides abscessus, clinical isolate 215, read-out: MIC
[17] = Mycobacteroides abscessus, clinical isolate JH1801, read-out: MIC
[18] = Mycobacteroides abscessus, clinical isolate JH1802, read-out: MIC
[19] = Mycobacteroides abscessus, clinical isolate JHH2, read-out: MIC
[20] = Mycobacteroides abscessus, clinical isolate JHH4, read-out: MIC
[21] = Mycobacteroides abscessus, clinical isolate JHH9, read-out: MIC
[22] = Mycobacteroides abscessus, clinical isolate JHHKB, read-out: MIC

Compound	MIC (M. abscessus; [2])	MIC (M. abscessus; [3])	MIC (M. abscessus; [4])	MIC (M. abscessus; [5])	MIC (M. abscessus; [6])	MIC (M. abscessus; [7])	MIC (M. abscessus; [8])	MIC (M. abscessus; [9])	MIC (M. abscessus; [10])	MIC (M. abscessus; [11])	MIC (M. abscessus; [12])	MIC (M. abscessus; [13])	MIC (M. abscessus; [14])	MIC (M. abscessus; [15])	MIC (M. abscessus; [16])	MIC (M. abscessus; [17])	MIC (M. abscessus; [18])	MIC (M. abscessus; [19])	MIC (M. abscessus; [20])	MIC (M. abscessus; [21])	also measured
C[C@@H](O)[C@H]1C(=O)N2C(C(=O)O)=C([C@H]3CCCO3)S[C@H]12 [Faropenem]	512 µg/mL (≈ 1790 µM)	256 µg/mL (≈ 897 µM)	256 µg/mL (≈ 897 µM)	256 µg/mL (≈ 897 µM)	256 µg/mL (≈ 897 µM)	512 µg/mL (≈ 1790 µM)	512 µg/mL (≈ 1790 µM)	512 µg/mL (≈ 1790 µM)	64 µg/mL (≈ 224 µM)	512 µg/mL (≈ 1790 µM)	512 µg/mL (≈ 1790 µM)	128 µg/mL (≈ 449 µM)	512 µg/mL (≈ 1790 µM)	128 µg/mL (≈ 449 µM)	512 µg/mL (≈ 1790 µM)	512 µg/mL (≈ 1790 µM)	256 µg/mL (≈ 897 µM)	512 µg/mL (≈ 1790 µM)	512 µg/mL (≈ 1790 µM)	512 µg/mL (≈ 1790 µM)	MIC (M. abscessus; [22]): 512 µg/mL (≈ 1790 µM); MIC50 (M. abscessus; Mycobacteroides abscessus): 512 µg/mL (≈ 1790 µM); MIC90 (M. abscessus; Mycobacteroides abscessus): 512 µg/mL (≈ 1790 µM); half-life in mice [1]: 11.4 min
C[C@@H](O)[C@H]1C(=O)N2C(C(=O)O)=C(SCCN=CN)C[C@H]12 [Imipenem]	8 µg/mL (≈ 26.7 µM)	8 µg/mL (≈ 26.7 µM)	8 µg/mL (≈ 26.7 µM)	8 µg/mL (≈ 26.7 µM)	16 µg/mL (≈ 53.4 µM)	16 µg/mL (≈ 53.4 µM)	32 µg/mL (≈ 107 µM)	32 µg/mL (≈ 107 µM)	8 µg/mL (≈ 26.7 µM)	32 µg/mL (≈ 107 µM)	16 µg/mL (≈ 53.4 µM)	32 µg/mL (≈ 107 µM)	32 µg/mL (≈ 107 µM)	8 µg/mL (≈ 26.7 µM)	16 µg/mL (≈ 53.4 µM)	16 µg/mL (≈ 53.4 µM)	16 µg/mL (≈ 53.4 µM)	32 µg/mL (≈ 107 µM)	16 µg/mL (≈ 53.4 µM)	16 µg/mL (≈ 53.4 µM)	Resistance frequency (M. abscessus ATCC 19977): 1.9 × 10^−7; MIC (M. abscessus; [22]): 256 µg/mL (≈ 855 µM); MIC50 (M. abscessus; Mycobacteroides abscessus): 16 µg/mL (≈ 53.4 µM); MIC90 (M. abscessus; Mycobacteroides abscessus): 32 µg/mL (≈ 107 µM)
C[C@@H](O)[C@@H]1C(=O)N2C(C(=O)O)=C(SC3CN(C4=NCCS4)C3)S[C@@H]12 [T405]																					concentration at 5 min (in vivo): 169 ng/mL; concentration at 0.25 h (in vivo): 157 ng/mL; concentration at 0.5 h (in vivo): 143 ng/mL; concentration at 1 h (in vivo): 65 ng/mL; concentration at 2 h (in vivo): 25.1 ng/mL
NC(=O)[C@@H]1CC[C@@H]2CN1C(=O)N2OS(=O)(=O)O [avibactam]																					MIC (M. abscessus; reference strain ATCC 19977): 256 µg/mL (≈ 965 µM)

Reference: PMC7721803, “Development of a penem antibiotic against Mycobacteroides abscessus” (Communications Biology, 2020)
